Test results: patent US20250312349A1, “COMPOSITION AND METHODS OF TREATING INTRACELLULAR PATHOGEN INFECTION” (UNIVERSITY HOSPITALS CLEVELAND MEDICAL CENTER, priority 2024, published 2025)

What was measured:
Lek and Fyn in T cells = details: cited from earlier work
T. gondii [1] = details: mice with ocular and cerebral toxoplasmosis, dependent on Beclin 1; cited from earlier work
T. gondii [2] = assay: In vitro infection of mammalian cells with T. gondii tachyzoites, counted by light microscopy; type: cell-based, Toxoplasma gondii; details: CHO cells, 0.3 μM or 1 μM, 2 or 24 hours
Procedure: Chinese Hamster Ovary (CHO; a gift from Cathleen Carlin, Case Western Reserve University), human retinal pigment epithelial (RPE) cells (ARPE-19; American Type Culture Collection, ATCC, Manassas, VA), and mouse endothelial […]) transduced with Src shRNA or control encoding lentiviral vectors were cultured in complete media. Mouse brain endothelial cells expressing WT or DN EGFR were isolated as described. Endothelial cells were cultured in medium containing Endothelial Cell Growth Supplement (ECGS; Sigma-Aldrich, St Louis, MO). Mammalian cells were infected with tachyzoites of the RH or PTG stains of T. gondii; RH strain was used unless otherwise indicated. Cells were fixed at 2 hours or 24 hours followed by staining using Hema 3 Manual Staining System (Fisherbrand, Hampton, NH). At least 100 to 200 cells per monolayer were counted by examining a minimum of 5 random areas per monolayer. The percentage of infected cells, tachyzoites and vacuoles per 100 cells, and tachyzoites per vacuole were counted using light microscopy. Three independent experiments were performed. Saracatinib, Gefitinib (LC Laboratories, Woburn, MA) and lysosomal inhibitors leupeptin and pepstatin (10 μM; Millipore Sigma, Burlington, MA) were used in specified experiments. Each cell monolayer was generated and infected independently.

Cc1nc(Nc2ncc(C(=O)Nc3c(C)cccc3Cl)s2)cc(N2CCN(CCO)CC2)n1.O [Dasatinib, N-(2-chloro-6-methylphenyl)-2-[[6-[4-(2-hydroxyethyl)-1-piperazinyl]-2-methyl-4-pyrimidinyl]amino]-5-thiazole carboxamide monohydrate]
IFN-γ production by T cells (Lek and Fyn in T cells): impaired | activity of Lek and Fyn in T cells (Lek and Fyn in T cells): reduced

COc1cc2ncnc(Nc3ccc(F)c(Cl)c3)c2cc1OCCCN1CCOCC1 [Gefitinib]
parasite load and histopathology in the eye and brain (T. gondii [1]): partial reduction

Cc1ccc(NC(=O)c2ccc(CN3CCN(C)CC3)cc2)cc1Nc1nccc(-c2cccnc2)n1 [Imatinib]
parasite survival (infected cells, tachyzoites per 100 cells) (T. gondii [2]): No significant difference
